Measurements reported in patent US5310920A, “N-vinylimidazolidine derivatives insecticides containing same as an effective ingredient” (priority 1991, dated 1994).
In brackets after ≈: the same amount, converted by molar mass. Like-named read-outs stand apart in the source and are kept apart here.

How the values were obtained:
[1] = system: Laodelphax striatellus Fallen - smaller brown planthopper; assay: Test Example 1: Effect on smaller brown planthopper, mortality; assay type: in vivo; settings: 5 ppm, 48 hours, 25° C., ten female adults, rice seedlings
Procedure: Effect on Laodelphax sriatellus Fallen--smaller brown planthopper
The emulsion prepared in Formulation Example 1 was diluted to a predetermined concentration and 2 ml of the diluted emulsion was applied over a bundle of several rice seedlings (about third leaf stage). After drying in air, the treated seedlings were covered with a metal gauze cylinder, in which ten female adults of the smaller brown planthopper were released, followed by placing in a temperature controlled room at 25° C. After 48 hours, the mortality was checked.

[2] = system: Myzus persicae Suizer - green peach aphid; assay: Test Example 7: Effect on green peach aphid, density of living insects; assay type: in vivo; settings: after three days; 100 × (living insects after / before treatment)
Text: Effect on Myzus persicae Suizer--green peach aphid
After the application, the seedlings were placed in the greenhouse and, after three days, the number of the aphids was checked, from which the density of the living insects was obtained. The tests were repeated two times.
(§1) Density of Living Insects = 100 × (number of living insects after
(§2) treatment/number of living insects before treatment)

[3] = system: resistant strain of Nephotettix cincticeptus Uhler - resistant green rice leafhopper; assay: Test Example 6: Effect on resistant green rice leafhopper, LC50; assay type: in vivo; settings: Nephotettix cincticeps, 48 h
Procedure: (§3) Effect on resistant strain of Nephotettix cincticeptus Uhler--resistant green rice leafhopper
The emulsion prepared in Formulation Example 1 was diluted to predetermined concentrations, and 2 ml of each diluted emulsion was applied over a bundle of several rice seedlings (about third leaf stage). After drying in air, the treated seedlings were covered with a metal gauze cylinder, in which ten female adults of the leafhopper that is resistant to organophosphate and carbamate insecticides were released, followed by placing in a temperature controlled room at 25° C. After 48 hours, the mortality was checked, from which the 50 %-lethal concentration (LC50) was obtained.

[4] = system: Laodelphax striatellus Fallen - smaller brown planthopper; assay: Test Example 5: Effect on smaller brown planthopper, LC50; assay type: in vivo; settings: 48 hours, 25° C.
Procedure: Effect on Laodelphax striatellus Fallen--smaller brown planthopper
The emulsion prepared in Formulation Example 1 was diluted to predetermined concentrations, and 2 ml of each diluted emulsion was applied over a bundle of several rice seedlings (about third leaf stage). After drying in air, the treated seedlings were covered with a metal gauze cylinder, in which ten female adults of the smaller brown planthopper were released, followed by placing in a temperature controlled room at 25° C. After 48 hours, the mortality was checked, from which the medium-lethal concentration […] was obtained.

[5] = Test Example 8: Acute Toxicity Test to Mice; settings: mouse, in vivo, po; forced peroral administration, corn oil, 6-week mice, up to 14 days
Procedure: Acute Toxicity Test to Mice
The compound of the invention having a predetermined concentration was dissolved in corn oil and applied to 6-week mice by forced peroral administration. Up to 14 days from the administration, the number of the died mice was counted periodically, from which the 50 %-lethal […] (LD50) was obtained. One group for the test comprised ten mice.

[6] = system: resistant strain of Nephotettix cincticeptus Uhler - resistant green rice leafhopper; assay: Test Example 2: Effect on resistant green rice leafhopper, mortality; assay type: in vivo; settings: Nephotettix cincticeps
Procedure: as §3
The emulsion prepared in Formulation Example 1 was diluted to a predetermined concentration and 3 ml of the diluted emulsion was applied over a bundle of several rice seedlings (about third leaf stage). After drying in air, the treated seedlings were covered with a metal gauze cylinder, in which ten female adults of the leafhopper that is resistant to organophosphate and carbamate insecticides were released, followed by placing in a temperature controlled room at 25° C. After 48 hours, the mortality was checked.

[7] = system: Myzus persicae Suizer - green peach aphid; assay: Test Example 4: Effect on green peach aphid, density of living insects; assay type: in vivo; settings: 50 ppm, after three days; 100 × (living insects after / before treatment)
Procedure: Effect on Myzus persicae Suizer green peach aphid
20 ml of a dilution of the emulsion prepared in Formulation Example 1 was sprayed over potted eggplant seedlings (fourth or fifth leaf stage), as having been grown in a greenhouse, on which the green peach aphids had been parasitic. After the application, the seedlings were placed in the greenhouse and, after three days, the number of the aphids was checked.
as §1, §2

[8] = system: Callosobruchus chinensis Linne - Azuki bean weevil; assay: whole plant or invertebrate; assay type: in vivo; settings: 48 h
Procedure: Effect on Callosobruchus chinensis Linne--Azuki bean weevil:
An acetone solution of the compound of the invention was added to a Petri dish with a diameter of 9 cm, followed by removal of the acetone by evaporation. Twenty female adults of the Azuki bean weevil, which were 2 to 3 days after emergence were placed in the dish at 25° C. After 48 hours, the mortality was checked.

[9] = 3 ppm, 48 hours, 25° C., ten female adults resistant to organophosphate and carbamate insecticides, read-out: Mortality (%)

For `CCSC=CN1CCN(Cc2ccc(Cl)nc2)C1=N[N+](=O)[O-]` [No. 42, 1-(2-chloropyridin-5-ylmethyl)-2-nitroimino-3-(2-ethylthiovinyl)imidazolidine], which “Mortality (%)” value [1] is on record?
The value was 100%.

With `C=CCN1CCN(Cc2ccc(Cl)nc2)C1=N[N+](=O)[O-]` [Reference Chemical 1, 1(2-chloropyridin-5-ylmethyl)-2-nitroimino-3-allylimidazolidine, reference compound] as the compound, how does the “Density of Living Insects” value [2] read?
The value was 25.

And the LC50 [3]?
Its LC50 is 3 µg/mL (≈ 10.1 µM).

What about the LC50 [4] of the same compound?
Its LC50 is 10 ppm.

What about the LD50 at 336 h [5] of the same compound?
The LD50 at 336 h was 100 to 200 mg/kg.

For `CCCCC(=CN1CCN(Cc2ccc(Cl)nc2)C1=N[N+](=O)[O-])CC` [No. 33, 1-(2-chloropyridin-5-ylmethyl)-2-nitroimino-3-(2-ethyl-1hexenyl)imidazlidine], which “Mortality (%)” value [1] is on record?
Its value is 100%.

What about the mortality at 3 ppm [6, 9] of the same compound?
Its mortality at 3 ppm is 100%.

With `O=[N+]([O-])N=C1N(C=Cc2ccc(Cl)cc2)CCN1Cc1ccc(Cl)nc1` [No. 14] as the compound, how does the “Mortality (%)” value [1] read?
The value was 100%.

Which “Mortality (%)” value [1] does the source give for `O=[N+]([O-])N=C1N(CCc2ccc(Cl)cc2)CCN1Cc1ccc(Cl)nc1` [Reference Chemical (1), 1(2-chloropyridin-5-ylmethyl)-2-nitroimino-3-{2-(4-chlorophenyl)ethyl}imiazolidine, reference compound] here?
Its value is 20%.

And the mortality at 3 ppm [6, 9]?
The mortality at 3 ppm was 25%.

For `COc1ccc(C=CN2CCN(Cc3ccc(Cl)nc3)C2=N[N+](=O)[O-])cc1` [No. 10], which mortality at 3 ppm [6, 9] is on record?
The mortality at 3 ppm was 100%.

What about the LD50 at 336 h [5] of the same compound?
Its LD50 at 336 h is over 5000 mg/kg.

Which “Mortality (%)” value [1] does the source give for `O=C(NC=CN1CCN(Cc2ccc(Cl)nc2)C1=N[N+](=O)[O-])c1ccccc1` [No. 41] here?
The value was 100%.

Which results are given for `COCN1CCN(Cc2ccc(Cl)nc2)C1=N[N+](=O)[O-]` [Reference Chemical (2), 1(2-chloropyridin-5-ylmethyl)-2-nitroimino-3-methoxymethylimidazolidine, reference compound]?
Mortality (%) [1]: 20%; mortality at 3 ppm [6, 9]: 30%

Which results are given for `O=[N+]([O-])N=C1N(C=CCc2ccccc2)CCN1Cc1ccc(Cl)nc1` [No. 40]?
Mortality (%) [1]: 100%; mortality at 3 ppm [6, 9]: 100%

Which “Density of Living Insects” value [7] does the source give for `COP(=O)(OC)OC=C(Cl)Cl` [DDVP, 0,0-dimethyl-0-(2,2-dichlorovinyl)phosphate] here?
Its value is 30.

With `C=CN1CCN(Cc2ccc(Cl)nc2)C1=N[N+](=O)[O-]` [No. 1] as the compound, how does the “Mortality (%)” value [1] read?
The value was 100%.

What about the mortality at 3 ppm [6, 9] of the same compound?
The mortality at 3 ppm was 100%.

For `CCOP(=S)(OCC)Oc1cc(C)nc(C(C)C)n1` [Diazinone], which mortality at 0.01 mg/dish, 0.01 mg/dish [8] is on record?
The mortality at 0.01 mg/dish, 0.01 mg/dish was 58%.

Which “Mortality (%)” value [1] does the source give for `O=[N+]([O-])N=C1N(C=Cc2ccc3c(c2)OCO3)CCN1Cc1ccc(Cl)nc1` [No. 11] here?
Its value is 100%.

And the mortality at 3 ppm [6, 9]?
The mortality at 3 ppm was 100%.

Which “Density of Living Insects” value [2] does the source give for `O=[N+]([O-])N=C1N(C=Cc2ccccc2)CCN1Cc1ccc(Cl)nc1` [No. 2] here?
The value was 20.

And the LC50 [3]?
The LC50 was 1.5 µg/mL (≈ 4.19 µM).

What about the LC50 [4] of the same compound?
Its LC50 is 3 ppm.

And the mortality at 3 ppm ([6]; 48 h)?
Its mortality at 3 ppm is 100%.

What does the source list for `CC(C)C=CN1CCN(Cc2ccc(Cl)nc2)C1=N[N+](=O)[O-]` [No. 27]?
Density of Living Insects [2]: 0; LC50 [3]: 0.3 µg/mL (≈ 0.927 µM); LC50 [4]: 1 ppm; LD50 at 336 h [5]: 1000 mg/kg

Which “Mortality (%)” value [1] does the source give for `O=[N+]([O-])N=C1N(C=Cc2ccccc2Cl)CCN1Cc1ccc(Cl)nc1` [No. 12] here?
The value was 100%.

Which “Density of Living Insects” value [2] does the source give for `O=[N+]([O-])N=C1N(CCc2ccccc2)CCN1Cc1ccc(Cl)nc1` [Reference Chemical 2, 1(2-chloropyridin-5-ylmethyl)-2-nitroimino-3-(2-phenylethyl)imidazolidine, reference compound] here?
Its value is 108.

What about the LC50 [3] of the same compound?
Its LC50 is 10 µg/mL (≈ 27.8 µM).

What about the LC50 [4] of the same compound?
The LC50 was 20 ppm.
